{"source": "ChEMBL document CHEMBL5465560", "about": "“Selectivity Literature for EUbOPEN Chemogenomic Library” (2024)", "key": {"[1]": {"target": "RAC-gamma serine/threonine-protein kinase (Homo sapiens, UniProt Q9Y243)", "sequence (Q9Y243 whole entry)": "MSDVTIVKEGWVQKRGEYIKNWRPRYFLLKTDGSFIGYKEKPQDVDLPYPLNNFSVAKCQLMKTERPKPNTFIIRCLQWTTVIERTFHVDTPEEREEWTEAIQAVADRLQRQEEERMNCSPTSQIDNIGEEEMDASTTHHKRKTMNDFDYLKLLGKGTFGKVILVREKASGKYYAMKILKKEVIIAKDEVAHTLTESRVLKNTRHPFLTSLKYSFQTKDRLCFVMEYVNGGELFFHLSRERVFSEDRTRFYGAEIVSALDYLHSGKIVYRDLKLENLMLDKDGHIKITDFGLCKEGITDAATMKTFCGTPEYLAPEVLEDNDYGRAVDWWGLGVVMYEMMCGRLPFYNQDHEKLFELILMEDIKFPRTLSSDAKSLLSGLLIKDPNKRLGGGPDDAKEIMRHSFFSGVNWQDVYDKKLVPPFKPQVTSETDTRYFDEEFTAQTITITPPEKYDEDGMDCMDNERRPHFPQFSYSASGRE", "assay": "Selectivity interaction (KinomeScan (DiscoverX)) EUB0000666a AKT3", "conditions": "at 10 µM"}, "[2]": {"target": "T1, Tyrosine-protein kinase TXK (Homo sapiens) (UniProt P42681)", "T1 sequence (whole entry)": "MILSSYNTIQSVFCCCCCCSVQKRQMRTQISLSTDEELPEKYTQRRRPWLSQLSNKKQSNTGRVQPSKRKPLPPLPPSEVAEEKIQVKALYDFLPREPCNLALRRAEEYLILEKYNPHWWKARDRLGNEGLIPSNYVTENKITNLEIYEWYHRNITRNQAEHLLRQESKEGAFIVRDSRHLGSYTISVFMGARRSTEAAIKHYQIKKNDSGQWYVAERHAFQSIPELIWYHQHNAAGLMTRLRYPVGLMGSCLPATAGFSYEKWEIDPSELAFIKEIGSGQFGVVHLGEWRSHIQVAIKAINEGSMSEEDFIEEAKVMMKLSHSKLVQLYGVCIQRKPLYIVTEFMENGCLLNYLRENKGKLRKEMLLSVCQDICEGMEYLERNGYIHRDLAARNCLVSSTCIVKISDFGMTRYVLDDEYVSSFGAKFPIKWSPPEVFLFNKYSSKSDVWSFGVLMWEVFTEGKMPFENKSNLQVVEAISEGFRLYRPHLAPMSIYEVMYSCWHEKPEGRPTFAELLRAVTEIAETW", "assay": "Selectivity interaction (KinomeScan (DiscoverX)) EUB0000229b TXK", "conditions": "at 10 µM"}, "[3]": {"assay": "Selectivity interaction (Eurofins CEREP Diversity Profile (receptors and ion channels)) EUB0000279b CRH", "conditions": "at 10 µM"}, "[4]": {"target": "T2, 5-hydroxytryptamine receptor 2C (Homo sapiens) (UniProt P28335)", "T2 sequence (whole entry)": "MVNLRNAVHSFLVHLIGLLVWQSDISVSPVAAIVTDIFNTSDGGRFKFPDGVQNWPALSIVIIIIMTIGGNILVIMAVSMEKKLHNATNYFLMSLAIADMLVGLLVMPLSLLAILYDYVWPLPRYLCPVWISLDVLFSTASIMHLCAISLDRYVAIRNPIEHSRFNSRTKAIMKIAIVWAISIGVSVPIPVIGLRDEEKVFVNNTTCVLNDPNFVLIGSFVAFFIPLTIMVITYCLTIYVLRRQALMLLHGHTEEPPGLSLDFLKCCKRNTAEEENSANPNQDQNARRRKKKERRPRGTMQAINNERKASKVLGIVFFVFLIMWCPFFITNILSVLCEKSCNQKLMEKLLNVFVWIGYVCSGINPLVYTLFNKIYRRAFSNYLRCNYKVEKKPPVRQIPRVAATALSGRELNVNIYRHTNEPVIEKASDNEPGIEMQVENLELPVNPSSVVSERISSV", "assay": "Selectivity interaction (GPCR panel (PDSP screen)) EUB0001079a HTR2C", "conditions": "at 10 µM"}, "[5]": {"target": "Serine/threonine-protein kinase 10 (Homo sapiens) (UniProt O94804)", "sequence (O94804 whole entry, looked up)": "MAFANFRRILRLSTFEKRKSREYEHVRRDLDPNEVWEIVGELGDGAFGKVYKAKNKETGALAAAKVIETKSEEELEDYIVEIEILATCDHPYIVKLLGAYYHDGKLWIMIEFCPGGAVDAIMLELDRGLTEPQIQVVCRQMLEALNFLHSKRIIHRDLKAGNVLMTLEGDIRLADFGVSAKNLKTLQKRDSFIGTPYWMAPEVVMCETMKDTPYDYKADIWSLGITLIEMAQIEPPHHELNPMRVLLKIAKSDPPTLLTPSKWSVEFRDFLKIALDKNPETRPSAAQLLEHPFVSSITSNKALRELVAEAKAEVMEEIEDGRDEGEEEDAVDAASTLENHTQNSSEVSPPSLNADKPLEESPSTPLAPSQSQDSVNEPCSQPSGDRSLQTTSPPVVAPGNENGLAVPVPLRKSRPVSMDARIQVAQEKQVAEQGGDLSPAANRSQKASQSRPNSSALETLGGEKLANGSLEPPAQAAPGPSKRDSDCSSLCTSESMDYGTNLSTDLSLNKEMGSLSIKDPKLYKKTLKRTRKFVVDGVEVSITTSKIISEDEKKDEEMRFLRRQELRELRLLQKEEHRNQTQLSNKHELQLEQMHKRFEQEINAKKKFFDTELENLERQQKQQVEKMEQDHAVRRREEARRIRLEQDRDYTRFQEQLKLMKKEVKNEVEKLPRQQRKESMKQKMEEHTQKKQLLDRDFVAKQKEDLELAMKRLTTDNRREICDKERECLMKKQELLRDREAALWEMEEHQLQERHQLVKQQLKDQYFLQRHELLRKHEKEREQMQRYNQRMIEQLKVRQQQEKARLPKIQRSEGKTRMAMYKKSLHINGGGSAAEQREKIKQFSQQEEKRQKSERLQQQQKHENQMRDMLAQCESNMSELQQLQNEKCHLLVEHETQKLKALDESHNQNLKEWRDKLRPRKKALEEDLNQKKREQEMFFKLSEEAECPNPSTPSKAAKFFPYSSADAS", "assay": "Selectivity interaction (ActivX KiNativ screen (kinase selectivity in THP-1 cell lysates)) EUB0000639a STK10", "format": "subcellular", "conditions": "lysate, at 0.01 µM"}, "[6]": {"system": "Tyrosine-protein kinase ABL1 (Homo sapiens), P00519 [F317I]", "sequence (P00519 whole entry F317I)": "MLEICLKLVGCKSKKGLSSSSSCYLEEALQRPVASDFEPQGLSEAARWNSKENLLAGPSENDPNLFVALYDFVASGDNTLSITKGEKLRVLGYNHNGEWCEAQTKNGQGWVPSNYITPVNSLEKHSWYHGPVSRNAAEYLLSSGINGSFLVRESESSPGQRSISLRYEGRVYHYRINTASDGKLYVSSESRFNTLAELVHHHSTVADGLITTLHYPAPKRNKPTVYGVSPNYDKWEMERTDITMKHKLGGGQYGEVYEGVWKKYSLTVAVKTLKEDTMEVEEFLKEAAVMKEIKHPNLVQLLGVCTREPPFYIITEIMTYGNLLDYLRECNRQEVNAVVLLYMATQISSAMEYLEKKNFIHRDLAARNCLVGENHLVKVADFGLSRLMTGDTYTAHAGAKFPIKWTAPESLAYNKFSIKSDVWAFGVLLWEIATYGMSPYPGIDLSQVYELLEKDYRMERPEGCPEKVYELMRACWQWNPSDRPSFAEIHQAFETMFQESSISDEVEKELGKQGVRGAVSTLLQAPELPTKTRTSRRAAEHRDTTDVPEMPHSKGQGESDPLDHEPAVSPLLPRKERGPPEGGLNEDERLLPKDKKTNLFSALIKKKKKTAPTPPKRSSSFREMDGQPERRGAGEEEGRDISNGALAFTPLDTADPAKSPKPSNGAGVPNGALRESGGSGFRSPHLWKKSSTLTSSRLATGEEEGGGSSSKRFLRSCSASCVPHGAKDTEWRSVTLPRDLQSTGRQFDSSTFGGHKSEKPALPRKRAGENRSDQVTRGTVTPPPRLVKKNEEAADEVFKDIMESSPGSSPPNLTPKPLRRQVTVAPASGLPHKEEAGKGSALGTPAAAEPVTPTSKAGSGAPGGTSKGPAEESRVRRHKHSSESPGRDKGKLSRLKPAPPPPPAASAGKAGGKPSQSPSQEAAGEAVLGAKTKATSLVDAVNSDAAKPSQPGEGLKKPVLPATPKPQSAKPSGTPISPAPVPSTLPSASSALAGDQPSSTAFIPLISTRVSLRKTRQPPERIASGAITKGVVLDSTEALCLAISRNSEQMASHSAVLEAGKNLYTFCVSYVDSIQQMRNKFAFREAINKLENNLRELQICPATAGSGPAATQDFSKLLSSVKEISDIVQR", "assay": "Selectivity interaction (KinomeScan (DiscoverX)) EUB0000045b ABL1", "conditions": "at 10 µM"}, "[7]": {"target": "T3, Serine/threonine-protein kinase Nek2 (Homo sapiens) (UniProt P51955)", "T3 sequence (whole entry)": "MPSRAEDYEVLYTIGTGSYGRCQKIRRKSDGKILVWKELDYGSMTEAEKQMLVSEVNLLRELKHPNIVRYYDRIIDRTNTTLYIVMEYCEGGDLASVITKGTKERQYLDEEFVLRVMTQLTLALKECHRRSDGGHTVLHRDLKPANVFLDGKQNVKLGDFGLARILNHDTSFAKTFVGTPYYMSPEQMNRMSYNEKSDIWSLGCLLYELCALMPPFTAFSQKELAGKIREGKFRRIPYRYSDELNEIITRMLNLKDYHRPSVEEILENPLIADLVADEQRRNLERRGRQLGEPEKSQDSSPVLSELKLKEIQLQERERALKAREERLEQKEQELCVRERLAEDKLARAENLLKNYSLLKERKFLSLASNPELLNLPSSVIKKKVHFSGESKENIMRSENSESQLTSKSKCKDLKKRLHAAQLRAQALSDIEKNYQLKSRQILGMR", "conditions": "at 10 µM"}, "[8]": {"target": "Proto-oncogene tyrosine-protein kinase Src (Homo sapiens, UniProt P12931)", "sequence (P12931 2-536 limits assumed)": "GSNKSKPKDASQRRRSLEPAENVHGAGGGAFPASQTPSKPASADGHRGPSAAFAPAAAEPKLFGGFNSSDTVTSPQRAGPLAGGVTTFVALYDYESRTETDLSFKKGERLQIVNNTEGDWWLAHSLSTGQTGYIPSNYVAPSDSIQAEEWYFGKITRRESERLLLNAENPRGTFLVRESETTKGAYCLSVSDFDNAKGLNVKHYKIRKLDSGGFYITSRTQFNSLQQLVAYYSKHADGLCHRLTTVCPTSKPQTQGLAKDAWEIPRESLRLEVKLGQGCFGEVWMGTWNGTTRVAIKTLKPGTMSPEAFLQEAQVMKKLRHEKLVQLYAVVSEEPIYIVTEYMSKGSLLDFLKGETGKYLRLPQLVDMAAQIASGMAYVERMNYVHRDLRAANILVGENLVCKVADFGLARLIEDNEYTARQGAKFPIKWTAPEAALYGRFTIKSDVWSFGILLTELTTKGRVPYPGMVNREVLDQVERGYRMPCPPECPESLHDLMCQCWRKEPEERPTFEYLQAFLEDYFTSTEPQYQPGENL", "conditions": "at 10 µM"}, "[9]": {"target": "Tyrosine-protein kinase ABL2 (Homo sapiens, UniProt P42684)", "assay": "Selectivity interaction (ActivX KiNativ screen (ex vivo kinase selectivity in human PBMCs)) EUB0001619a ABL2", "format": "cell-based", "conditions": "PBMC, at 1 µM"}, "[10]": {"target": "T4, Dual specificity protein kinase TTK (Homo sapiens) (UniProt P33981)", "T4 sequence (whole entry)": "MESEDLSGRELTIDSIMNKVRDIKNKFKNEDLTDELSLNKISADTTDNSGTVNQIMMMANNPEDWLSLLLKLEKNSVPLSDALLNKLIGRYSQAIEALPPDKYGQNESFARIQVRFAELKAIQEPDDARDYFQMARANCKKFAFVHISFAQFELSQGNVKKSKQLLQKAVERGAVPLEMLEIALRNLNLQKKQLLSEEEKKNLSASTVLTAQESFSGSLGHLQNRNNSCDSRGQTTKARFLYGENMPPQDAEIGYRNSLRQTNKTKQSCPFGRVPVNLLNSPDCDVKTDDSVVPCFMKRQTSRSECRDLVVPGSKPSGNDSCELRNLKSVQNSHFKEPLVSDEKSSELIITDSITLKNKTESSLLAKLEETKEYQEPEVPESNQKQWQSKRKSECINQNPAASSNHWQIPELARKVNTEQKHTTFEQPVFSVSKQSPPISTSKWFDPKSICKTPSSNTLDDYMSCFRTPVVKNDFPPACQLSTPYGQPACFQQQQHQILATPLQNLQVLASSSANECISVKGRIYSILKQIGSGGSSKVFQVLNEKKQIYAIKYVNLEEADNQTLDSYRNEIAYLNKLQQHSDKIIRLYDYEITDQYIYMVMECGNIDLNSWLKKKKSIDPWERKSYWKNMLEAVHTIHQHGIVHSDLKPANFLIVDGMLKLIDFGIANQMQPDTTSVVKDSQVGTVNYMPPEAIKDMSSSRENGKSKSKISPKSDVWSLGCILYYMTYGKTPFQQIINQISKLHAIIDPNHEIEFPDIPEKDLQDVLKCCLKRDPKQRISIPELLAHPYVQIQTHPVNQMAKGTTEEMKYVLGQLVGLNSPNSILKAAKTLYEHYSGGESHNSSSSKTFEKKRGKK", "assay": "Selectivity interaction (KinomeScan (DiscoverX)) EUB0001619a TTK", "conditions": "at 1 µM"}, "[11]": {"target": "Tyrosine-protein kinase JAK2 (Homo sapiens, UniProt O60674)", "sequence (O60674 whole entry)": "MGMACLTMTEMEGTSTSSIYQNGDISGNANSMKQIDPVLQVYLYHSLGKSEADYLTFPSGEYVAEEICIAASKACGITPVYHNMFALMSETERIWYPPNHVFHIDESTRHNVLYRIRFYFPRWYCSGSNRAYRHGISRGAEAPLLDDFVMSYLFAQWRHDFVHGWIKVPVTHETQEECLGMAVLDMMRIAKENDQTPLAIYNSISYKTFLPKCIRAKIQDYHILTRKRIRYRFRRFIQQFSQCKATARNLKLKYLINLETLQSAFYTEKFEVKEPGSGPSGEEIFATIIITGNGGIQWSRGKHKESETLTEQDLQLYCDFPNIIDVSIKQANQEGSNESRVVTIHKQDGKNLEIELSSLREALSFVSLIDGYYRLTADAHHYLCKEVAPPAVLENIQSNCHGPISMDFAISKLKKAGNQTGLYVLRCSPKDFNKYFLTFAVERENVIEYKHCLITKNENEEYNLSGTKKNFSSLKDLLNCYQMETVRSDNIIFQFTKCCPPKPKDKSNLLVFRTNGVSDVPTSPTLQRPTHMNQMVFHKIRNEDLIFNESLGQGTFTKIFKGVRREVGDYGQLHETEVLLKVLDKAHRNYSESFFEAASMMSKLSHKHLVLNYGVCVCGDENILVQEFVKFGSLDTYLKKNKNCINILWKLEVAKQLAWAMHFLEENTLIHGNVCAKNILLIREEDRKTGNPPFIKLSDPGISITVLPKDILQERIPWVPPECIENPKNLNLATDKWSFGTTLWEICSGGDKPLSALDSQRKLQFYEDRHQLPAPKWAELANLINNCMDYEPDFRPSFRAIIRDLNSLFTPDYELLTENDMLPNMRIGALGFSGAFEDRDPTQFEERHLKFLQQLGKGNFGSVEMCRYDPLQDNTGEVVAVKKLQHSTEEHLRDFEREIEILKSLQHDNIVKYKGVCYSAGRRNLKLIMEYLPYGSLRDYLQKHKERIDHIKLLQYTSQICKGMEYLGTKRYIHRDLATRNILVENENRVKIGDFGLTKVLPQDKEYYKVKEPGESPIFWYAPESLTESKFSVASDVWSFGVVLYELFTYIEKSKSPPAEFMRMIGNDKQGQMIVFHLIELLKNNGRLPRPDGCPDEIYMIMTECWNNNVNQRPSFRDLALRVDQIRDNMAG", "assay": "Selectivity interaction (Kinase panel (Carna Biosciences)) EUB0001542aTs JAK2", "conditions": "at 1 µM"}, "[12]": {"target": "Mitogen-activated protein kinase 7 (Homo sapiens) (UniProt Q13164)", "sequence (Q13164 2-816 limits assumed)": "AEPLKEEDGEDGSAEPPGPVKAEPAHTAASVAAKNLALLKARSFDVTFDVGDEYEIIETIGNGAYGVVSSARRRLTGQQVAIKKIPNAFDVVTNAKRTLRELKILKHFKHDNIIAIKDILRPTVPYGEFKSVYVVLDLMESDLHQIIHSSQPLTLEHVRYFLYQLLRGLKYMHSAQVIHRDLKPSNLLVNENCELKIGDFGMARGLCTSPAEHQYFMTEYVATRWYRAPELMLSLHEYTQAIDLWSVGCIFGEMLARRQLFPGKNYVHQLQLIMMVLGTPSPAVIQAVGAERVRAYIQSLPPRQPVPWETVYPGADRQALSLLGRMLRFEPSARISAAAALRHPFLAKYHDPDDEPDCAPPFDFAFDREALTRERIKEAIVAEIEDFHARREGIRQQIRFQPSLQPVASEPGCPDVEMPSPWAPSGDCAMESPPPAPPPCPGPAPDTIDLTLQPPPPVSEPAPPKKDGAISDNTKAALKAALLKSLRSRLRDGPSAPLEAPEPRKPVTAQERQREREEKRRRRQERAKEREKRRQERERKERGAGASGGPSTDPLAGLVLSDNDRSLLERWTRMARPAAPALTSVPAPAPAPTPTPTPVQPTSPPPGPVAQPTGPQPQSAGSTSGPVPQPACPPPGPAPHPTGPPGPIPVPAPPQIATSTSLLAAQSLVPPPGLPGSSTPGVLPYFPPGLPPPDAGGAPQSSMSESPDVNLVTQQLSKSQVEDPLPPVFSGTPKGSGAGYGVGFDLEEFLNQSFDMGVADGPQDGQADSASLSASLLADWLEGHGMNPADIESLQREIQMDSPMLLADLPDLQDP", "assay": "Selectivity interaction (Kinase panel (Carna Biosciences)) EUB0001542aTs MAPK7", "conditions": "at 1 µM"}}}
{"smiles": "O=C(NOC[C@H](O)CO)c1ccc(F)c(F)c1Nc1ccc(I)cc1F", "values": [{"measurement": "% of control", "setting": "[1]", "result": 89, "unit": "%"}]}
{"smiles": "COc1cc(N(C)c2ccnc3ccc(C(F)(F)F)cc23)cc(OC)c1OC", "values": [{"measurement": "% binding", "setting": "[2]", "result": 96, "unit": "%"}]}
{"smiles": "CC(=O)c1cc(-c2ccccc2OCC2CC2)c2ncccn12", "values": [{"measurement": "% of control", "setting": "[3]", "result": 118, "unit": "%"}]}
{"smiles": "Nc1cnc(N2CCc3cc(S(=O)(=O)Nc4c(F)cc(Cl)cc4F)cc(N4CCCC4=O)c32)nc1", "note": "[TP-020n]", "values": [{"measurement": "% of inhibition", "setting": "[4]", "result": -15.8, "unit": "%"}]}
{"smiles": "CC[C@@H]1[C@H](F)C(=O)N[C@@H]1COc1nccc2cc(C(N)=O)c(OC)cc12", "note": "[ZIMLOVISERTIB]", "values": [{"measurement": "% of inhibition", "setting": "[5]", "result": -34.8, "unit": "%"}]}
{"smiles": "C=CC(=O)Nc1cc(-n2c(=O)ccc3cnc4ccc(-c5ccc(NS(C)(=O)=O)cc5)cc4c32)ccc1C", "values": [{"measurement": "% of control", "setting": "[6]", "result": 100, "unit": "%"}]}
{"smiles": "Cc1cc([C@@H](C)Nc2ccccc2C(=O)O)c2nc(N3CCOCC3)cc(=O)n2c1", "note": "[AZD-6482]", "values": [{"measurement": "% of control", "setting": "[7]", "result": 71, "unit": "%"}, {"measurement": "% of control", "setting": "[8]", "result": 100, "unit": "%"}]}
{"smiles": "N#Cc1cccc(-c2c[nH]c3ncnc(N4CCOCC4)c23)c1", "values": [{"measurement": "% of inhibition", "setting": "[9]", "result": -1, "unit": "%"}, {"measurement": "% of control", "setting": "[10]", "result": 92, "unit": "%"}]}
{"smiles": "Cn1cc(Nc2nccc(N3CC4CCC(C3)N4C(=O)[C@@H]3CC3(F)F)n2)cn1", "values": [{"measurement": "% of inhibition", "setting": "[11]", "result": 101, "unit": "%"}, {"measurement": "% of inhibition", "setting": "[12]", "result": 63, "unit": "%"}]}
